What was measured:
Assay in all cases: Cancer cell proliferation, Alamar Blue assay, 72 hours
Type in all cases: cell-based
NCI-H82 = details: Homo sapiens, NCI-H82, read-out: IC50 NCl-H82
Experimental: (§1) The ability of the compounds described herein to kill or inhibit the proliferation of cancer cells was measured using either the MTT assay, or the Alamar Blue assay, or the Cell Titer Glow® assay using 48 or 72 hours exposure. […] The procedures are briefly described below. Cells of the desired tumor cell line were plated at 2×10^5 cells/ml in 96 well plates. Twice the indicated concentrations of the compounds of the invention were added to cells the following day in an equal volume of media. 72 hours later, cells were lysed and subjected to ATP determination using the CellTiter Glo-Luminescent Cell Viability Assay kit (Promega, Madison, Wis.). Experiments were done in triplicate. When using the MTT assay or the Alamar blue assay, the experimental conditions are essentially similar; at the end of the incubation period, 20 microliters of the MTT solution is added per well and the samples are incubated for an additional four hours, rinsed, and the absorbance at 570 nm measured. […] Table 2 lists the IC50 values for the compounds of the invention in several cell lines including Jurkat, Calu-6, NCI-H82, U937, HCT-116, and MDA-MB-231 cancer cell lines.

Calu-6 = details: Homo sapiens, Calu-6
Experimental: as §1

Jurkat = details: Homo sapiens, Jurkat
Experimental: as §1

Compound	IC50 (NCI-H82) [nM]	IC50 (Calu-6) [nM]	IC50 (Jurkat) [nM]
COc1cccc(C(O)c2cc3c(ccc4ccccc43)[nH]2)c1 (stereo not drawn) [ACT-PFK-124, (3H-Benzo[e]indol-2-yl)-(3-methoxy-phenyl)-methanol]	11200	10400	8800
COc1cc(C(=O)c2cc3c(ccc4ccccc43)[nH]2)ccc1N [ACT-PFK-129, (4-Amino-3-methoxy-phenyl)-(3H-benzo[e]indol-2-yl)-methanone]	370	355	230
OC(c1ccncc1)c1cc2c(ccc3ccccc32)[nH]1 (stereo not drawn) [ACT-PFK-125, (3H-Benzo[e]indol-2-yl)-pyridin-4-yl-methanol]	20300	39500	22700
CS(=O)(=O)Nc1ccc(C(=O)c2cc3c(ccc4ccccc43)[nH]2)cc1 [ACT-PFK-133, N-[4-(3H-Benzo[e]indole-2-carbonyl)-phenyl]-methanesulfonamide]	11900	40800	2350
O=C(c1cccc(CO)c1)c1cc2c(ccc3ccccc32)[nH]1 [ACT-PFK-120, (3H-Benzo[e]indol-2-yl)-(3-hydroxymethyl-phenyl)-methanone]	270	55	155
O=C(c1ccc(O)c(F)c1)c1cc2c(cc(F)c3ccccc32)[nH]1 [ACT-PFK-122, (5-Fluoro-3H-benzo[e]indol-2-yl)-(3-fluoro-4-hydroxy-phenyl)-methanone]	320	70	235
Nc1ccc(NC(=O)c2cc3c(ccc4ccccc43)[nH]2)cc1 [ACT-PFK-134, 3H-Benzo[e]indole-2-carboxylic acid (4-amino-phenyl)-amide]	3450	2450	3300
O=C(Nc1ccccc1)c1cc2c(ccc3ccccc32)[nH]1 [ACT-PFK-126, 3H-Benzo[e]indole-2-carboxylic acid phenylamide]	840	1100	850
CN(C)c1ccc(C(=O)c2cc3c(ccc4ccccc43)[nH]2)cc1 [ACT-PFK-128, (3H-Benzo[e]indol-2-yl)-(4-dimethylamino-phenyl)-methanone]	> 100000	> 100000	> 100000
O=C(c1cc2c(cc(F)c3ccccc32)[nH]1)C1CCCCC1 [ACT-PFK-121, Cyclohexyl-(5-fluoro-3H-benzo[e]indol-2-yl)-methanone]	335	79	115
COc1cc(C(=O)c2cc3c(cc(OC)c4ccccc43)[nH]2)ccc1N [ACT-PFK-131, (4-Amino-3-methoxy-phenyl)-(5-methoxy-3H-benzo[e]indol-2-yl)-methanone]	> 100000	> 100000	> 100000
COc1cccc(NC(=O)c2cc3c(ccc4ccccc43)[nH]2)c1 [ACT-PFK-127, 3H-Benzo[e]indole-2-carboxylic acid (3-methoxy-phenyl)-amide]	755	1020	780
COc1cc(C(=O)c2cc3c(cc(O)c4ccccc43)[nH]2)ccc1N [ACT-PFK-130, (4-Amino-3-methoxy-phenyl)-(5-hydroxy-3H-benzo[e]indol-2-yl)-methanone]	1450	1650	1130

Reference: patent US20130059879A1, “Small Molecule Inhibitors of PFKFB3 and Glycolytic Flux and Their Methods of Use as Anti-Cancer Therapeutics” (UNIVERSITY OF LOUISVILLE RESEARCH FOUNDATION, INC., priority 2010, published 2013)
